Laboratory results: ChEMBL document CHEMBL4049417, “Design and synthesis of novel 6-aryl substituted 4-anilinequinazoline derivatives as potential PI3Kδ inhibitors” (Bioorg Med Chem Lett, 2017)
pIC50: −log10 of the molar value.

Assays:
[1] = target: PI3-kinase p110-delta/p85-alpha (Homo sapiens) (UniProt P27986+O00329); experiment: Inhibition of PI3K p110delta/p85alpha (unknown origin) at 100 nM using lipid substrate after 40 mins by kinase-glo luminescence assay relative to control; type: protein-complex assay
[2] = Antiproliferative activity against human RPMI8266 cells after 72 hrs by MTT assay; type: functional, cell-based; details: RPMI8266, 72 h
[3] = test system: Ramos; experiment: Antiproliferative activity against human Ramos cells after 72 hrs by MTT assay; type: functional, cell-based
[4] = test system: Raji; experiment: Antiproliferative activity against human Raji cells after 72 hrs by MTT assay; type: functional, cell-based
[5] = target: PI3-kinase p110-delta/p85-alpha (Homo sapiens, UniProt O00329); experiment: Inhibition of PI3K p110delta/p85alpha (unknown origin) using lipid substrate after 40 mins by kinase-glo luminescence assay; type: protein-complex assay
Chain of PI3-kinase p110-delta/p85-alpha (P27986 whole entry): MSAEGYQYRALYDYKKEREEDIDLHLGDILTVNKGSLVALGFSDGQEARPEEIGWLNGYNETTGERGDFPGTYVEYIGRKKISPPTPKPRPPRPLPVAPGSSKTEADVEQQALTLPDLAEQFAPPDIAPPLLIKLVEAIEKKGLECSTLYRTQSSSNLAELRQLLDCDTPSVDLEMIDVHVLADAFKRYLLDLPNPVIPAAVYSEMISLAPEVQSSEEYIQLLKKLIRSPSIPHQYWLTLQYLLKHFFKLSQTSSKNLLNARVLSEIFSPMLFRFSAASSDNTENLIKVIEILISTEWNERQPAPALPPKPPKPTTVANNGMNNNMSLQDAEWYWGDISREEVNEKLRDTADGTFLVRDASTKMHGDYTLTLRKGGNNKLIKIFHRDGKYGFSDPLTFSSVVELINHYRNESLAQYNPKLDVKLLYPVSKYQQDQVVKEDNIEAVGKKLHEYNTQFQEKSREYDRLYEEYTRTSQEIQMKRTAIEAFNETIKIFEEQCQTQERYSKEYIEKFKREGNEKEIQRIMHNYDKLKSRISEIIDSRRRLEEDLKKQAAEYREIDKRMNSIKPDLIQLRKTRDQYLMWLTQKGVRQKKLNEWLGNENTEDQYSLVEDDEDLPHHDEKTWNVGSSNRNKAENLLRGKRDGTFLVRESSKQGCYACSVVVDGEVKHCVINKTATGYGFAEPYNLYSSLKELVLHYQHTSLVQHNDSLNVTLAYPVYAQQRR
Chain of PI3-kinase p110-delta/p85-alpha (O00329 whole entry): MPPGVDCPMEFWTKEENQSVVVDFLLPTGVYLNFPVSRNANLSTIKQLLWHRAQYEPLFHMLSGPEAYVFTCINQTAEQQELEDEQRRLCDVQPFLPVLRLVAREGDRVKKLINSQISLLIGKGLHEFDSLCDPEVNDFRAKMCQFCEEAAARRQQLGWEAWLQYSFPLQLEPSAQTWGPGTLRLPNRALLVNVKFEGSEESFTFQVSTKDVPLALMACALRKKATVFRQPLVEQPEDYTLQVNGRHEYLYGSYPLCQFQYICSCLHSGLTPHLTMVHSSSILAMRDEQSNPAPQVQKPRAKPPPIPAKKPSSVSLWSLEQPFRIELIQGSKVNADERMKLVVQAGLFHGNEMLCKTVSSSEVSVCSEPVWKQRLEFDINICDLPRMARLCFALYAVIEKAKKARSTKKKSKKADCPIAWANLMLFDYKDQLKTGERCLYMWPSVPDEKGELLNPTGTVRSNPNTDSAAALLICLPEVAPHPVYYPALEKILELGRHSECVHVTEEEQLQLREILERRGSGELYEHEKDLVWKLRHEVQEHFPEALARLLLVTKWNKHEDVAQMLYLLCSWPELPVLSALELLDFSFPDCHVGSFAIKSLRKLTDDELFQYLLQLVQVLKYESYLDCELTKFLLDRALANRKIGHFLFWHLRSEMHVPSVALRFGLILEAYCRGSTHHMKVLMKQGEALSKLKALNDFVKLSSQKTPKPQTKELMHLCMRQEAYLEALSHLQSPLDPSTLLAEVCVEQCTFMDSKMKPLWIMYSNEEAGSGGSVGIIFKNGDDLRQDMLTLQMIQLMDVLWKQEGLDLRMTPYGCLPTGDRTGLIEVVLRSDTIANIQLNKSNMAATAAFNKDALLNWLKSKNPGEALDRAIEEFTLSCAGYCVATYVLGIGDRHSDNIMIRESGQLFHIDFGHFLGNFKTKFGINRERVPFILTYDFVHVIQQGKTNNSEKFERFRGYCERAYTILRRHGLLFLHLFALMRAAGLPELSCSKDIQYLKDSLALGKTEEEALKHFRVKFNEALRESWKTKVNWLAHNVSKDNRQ

COc1ccc(-c2ccc3ncnc(Nc4cccc(C(=O)N5CCOCC5)c4)c3c2)cc1C(N)=O
inhibition [1]: 21%

COc1ccc(-c2ccc3nccc(Nc4cccc(C(=O)N5CCN(C)CC5)c4)c3c2)cn1
inhibition [1]: 23%

COc1ccc(-c2ccc3ncnc(Nc4cccc(C(=O)N5CCN(C)CC5)c4)c3c2)cc1C(N)=O
inhibition [1]: 33%

COc1ccc(-c2ccc3ncnc(Nc4ccc(C(=O)N5CCN(C)CC5)cc4)c3c2)cc1C(N)=O
inhibition [1]: 12%

COc1cc(C(N)=O)cc(-c2ccc3ncnc(Nc4cccc(C(=O)N5CCOCC5)c4)c3c2)c1
inhibition [1]: 61%

COc1ccc(-c2ccc3ncnc(Nc4ccc(C(=O)N5CCOCC5)cc4)c3c2)cc1C(N)=O
inhibition [1]: 0%

CC[C@H](Nc1ncnc2[nH]cnc12)c1nc2cccc(F)c2c(=O)n1-c1ccccc1 [IDELALISIB]
inhibition [1]: 96% | pIC50 [2]: 5.26 | pIC50 [3]: < 5.00 | pIC50 [4]: 5.00

COc1ncc(-c2ccc3ncnc(Nc4cccc(C(=O)N5CCOCC5)c4)c3c2)cc1C#N
inhibition [1]: 93% | pIC50 [5]: 8.03 | pIC50 [2]: 5.18 | pIC50 [3]: < 5.00 | pIC50 [4]: < 5.00

COc1ccc(-c2ccc3ncnc(Nc4ccc(C(=O)N5CCOCC5)cc4)c3c2)cn1
inhibition [1]: 61%

COc1ccc(-c2ccc3nccc(Nc4cccc(C(=O)N5CCN(C)CC5)c4)c3c2)cc1C(N)=O
inhibition [1]: 0%

COc1c(C(N)=O)cc(-c2ccc3ncnc(Nc4cccc(C(=O)N5CCOCC5)c4)c3c2)cc1[N+](=O)[O-]
inhibition [1]: 49%

COc1ccc(-c2ccc3ncnc(Nc4cccc(C(=O)N5CCOCC5)c4)c3c2)cn1
inhibition [1]: 87%

COc1ccc(-c2ccc3ncnc(Nc4cccc(C(=O)N5CCN(C)CC5)c4)c3c2)cn1
inhibition [1]: 71%

NC(=O)c1cc(-c2ccc3ncnc(Nc4cccc(C(=O)N5CCOCC5)c4)c3c2)cc(C(F)(F)F)c1
inhibition [1]: 91% | pIC50 [5]: 8.01 | pIC50 [2]: 5.96 | pIC50 [3]: 5.97 | pIC50 [4]: 6.02
